In US10575537B2, “Saury Maillard peptide and its preparation method and application” (South China University of Technology, priority 2015, dated 2020):
Marks after values point to notes of the source that are not given here.

Key:
[1] = tested on: rats with hyperuricemia induced by oteracil potassium; test: serum uric acid content in rats with hyperuricemia induced by oteracil potassium; assay type: in vivo, rat
Excerpt: (§1) As the index in the following examples, the experimental method of therapeutic effects of the peptide samples on the oteracil potassium-induced hyperuricemia in rats was as follow:
(§2) Animals: 140 SPF grade SD male rats, weight 200±20 g, purchased from Laboratory Animal Center of Guangzhou University of Chinese Medicine.
(§3) Animal grouping and modeling: Taking a total of 140 healthy male SD rats, and randomly dividing them into a normal control group (20 rats) and a model group (120 rats); the model group rats were gavage with oteracil potassium (daily dose: 2 g/kg) for 7 days, then the rat were anesthetized via intraperitoneally injecting 3% pentobarbital sodium (30 mg/kg) after the last administration, their blood was taken from conjunctival (0.5 ml), then centrifuging at 4° C. and 3000 r/min for 15 min, and taking the upper serum to determine the uric acid content, and the rats in the normal control group were treated with a constant volume of solvent by intragastric administration. The rats with the uric acid content above 110 μmol/L were identified to be successful in modeling.
The rats successful in modeling, according to the uric acid content, was randomly dividing into a model control group (constant volume solvent), a tested peptide sample group (200 mg/kg) and an allopurinol group (50 mg/kg) at 14 rats per group, and the rats were gavage with oteracil potassium (daily dose: 2 g/kg) at a dose of 10 ml/kg, with the model rats treated with a constant volume of distilled water. Administering 3% pentobarbital sodium (30 mg/kg) for 50 min at the end of administering the above-mentioned peptide samples for 10 days and 20 days, drawing the conjunctival blood (0.5 ml), and determining the serum uric acid content; after the 30th day of treatment with anti-gout peptides, drawing the celiac artery blood 5 ml after anesthesia with 3% pentobarbital sodium, and determining the content of serum creatinine and urea nitrogen in addition to determining the serum uric acid content.
Determination of serum uric acid: using the tungstic acid method and strictly following the determination method from the kit instructions.
Statistical treatment: all data is presented as “mean±standard deviation”, t test was performed to determine the significant difference between samples at the 95% confidence interval using SPSS 19.0 software.

[2] = tested on: serum adenosine deaminase (ADA); test: serum ADA activity in rats with hyperuricemia induced by oteracil potassium; assay type: in vivo, rat; details: 30 days, peptide samples 200 mg/kg, allopurinol 50 mg/kg
Excerpt: as §1, §2
as §3, with “modeling. […]” for “modeling.”

[3] = tested on: rats with hyperuricemia induced by oteracil potassium; test: serum creatinine and urea nitrogen content in rats with hyperuricemia induced by oteracil potassium; assay type: in vivo, rat; details: 30 days, peptide samples 200 mg/kg, allopurinol 50 mg/kg
Excerpt: as §1, §2
as §3, with “modeling. […]” for “modeling.”

[4] = biological target: T1, serum xanthine oxidase (XOD) (Rattus norvegicus, UniProt P22985); test: serum XOD activity in rats with hyperuricemia induced by oteracil potassium; assay type: in vivo; details: 30 days, peptide samples 200 mg/kg, allopurinol 50 mg/kg
T1 construct: Taking 100 μl of serum for determination of XOD; from tissue; host or cells: serum of SD male rats
Excerpt: as §1, §2
as §3, with “modeling. […]” for “modeling.”

T1 sequence (P22985 whole entry): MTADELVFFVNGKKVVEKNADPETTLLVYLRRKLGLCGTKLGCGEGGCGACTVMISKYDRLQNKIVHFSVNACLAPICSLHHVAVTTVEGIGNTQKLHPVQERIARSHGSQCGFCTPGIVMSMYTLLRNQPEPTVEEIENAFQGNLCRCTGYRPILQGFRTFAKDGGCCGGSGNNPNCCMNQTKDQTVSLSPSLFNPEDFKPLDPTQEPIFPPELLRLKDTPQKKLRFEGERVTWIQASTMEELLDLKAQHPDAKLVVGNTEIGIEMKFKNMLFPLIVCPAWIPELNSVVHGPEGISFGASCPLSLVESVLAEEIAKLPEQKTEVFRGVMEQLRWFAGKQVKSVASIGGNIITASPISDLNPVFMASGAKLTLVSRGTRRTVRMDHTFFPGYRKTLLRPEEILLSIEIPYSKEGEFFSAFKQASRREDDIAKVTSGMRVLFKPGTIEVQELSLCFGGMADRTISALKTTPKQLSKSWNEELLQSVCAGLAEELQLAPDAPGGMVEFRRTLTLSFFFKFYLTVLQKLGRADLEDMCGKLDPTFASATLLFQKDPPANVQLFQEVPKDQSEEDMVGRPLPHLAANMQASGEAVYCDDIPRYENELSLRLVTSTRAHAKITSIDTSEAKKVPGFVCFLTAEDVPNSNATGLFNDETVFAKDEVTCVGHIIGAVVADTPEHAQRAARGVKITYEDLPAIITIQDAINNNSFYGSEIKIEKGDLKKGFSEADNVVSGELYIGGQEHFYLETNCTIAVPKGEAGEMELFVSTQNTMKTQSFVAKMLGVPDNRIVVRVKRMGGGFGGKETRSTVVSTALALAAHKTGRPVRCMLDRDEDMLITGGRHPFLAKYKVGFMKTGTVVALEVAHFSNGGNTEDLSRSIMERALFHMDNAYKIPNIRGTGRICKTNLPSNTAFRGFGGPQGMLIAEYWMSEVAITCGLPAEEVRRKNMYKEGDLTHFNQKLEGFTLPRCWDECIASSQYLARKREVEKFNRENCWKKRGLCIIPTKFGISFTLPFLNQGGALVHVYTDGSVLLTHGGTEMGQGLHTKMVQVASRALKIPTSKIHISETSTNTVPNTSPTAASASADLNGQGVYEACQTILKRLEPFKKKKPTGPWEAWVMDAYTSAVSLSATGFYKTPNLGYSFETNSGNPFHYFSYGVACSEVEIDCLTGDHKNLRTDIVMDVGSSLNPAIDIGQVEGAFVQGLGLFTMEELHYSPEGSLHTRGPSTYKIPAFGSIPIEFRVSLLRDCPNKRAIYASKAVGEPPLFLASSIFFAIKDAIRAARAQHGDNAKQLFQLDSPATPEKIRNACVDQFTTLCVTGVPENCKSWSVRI

With `Oc1ncnc2[nH]ncc12` [Allopurinol] as the compound, how does the “effect on serum uric acid content, in words” value ([1]; hyperuricemia model rats, compared with model group) read?
The value was “significantly decreased (p<0.01)”.

And the “Uric acid value, before administration” value ([1]; serum, SD male rats after modeling with oteracil potassium 2 g/kg daily, baseline before administration)?
Its value is 230.4 ± 19.1 µmol/L.

And the “Uric acid value, treatment for 10 days” value ([1]; serum, gavage, peptide samples 200 mg/kg, allopurinol 50 mg/kg, 10 days)?
The value was 89.5 ± 22.4^b μmol/L.

What about the “Uric acid value, treatment for 20 days” value ([1]; serum, gavage, peptide samples 200 mg/kg, allopurinol 50 mg/kg, 20 days) of the same compound?
Its value is 94.5 ± 13.9^b μmol/L.

And the “Uric acid value, treatment for 30 days” value ([1]; serum, gavage, peptide samples 200 mg/kg, allopurinol 50 mg/kg, 30 days)?
The value was 92.8 ± 20.9^b μmol/L.

What about the ADA [2] of the same compound?
Its ADA is 12.28 ± 7.88^b U/ml.

What about the Creatinine [3] of the same compound?
The Creatinine was 41.8 ± 13.2^b μmol/L.

What about the XOD [4] of the same compound?
Its XOD is 8.61 ± 2.46^b U/L.
